Measured values taken from BindingDB's records for doi:10.1021/jm981078h (Leiden University, 1999).

Target: Asialoglycoprotein receptor 1 (Rattus norvegicus) (UniProt P02706)
Test: Affinity tested by in vitro competition assay of [125I]ASOR binding to parenchymal rat liver cells

Chain of Asialoglycoprotein receptor 1 (Rattus norvegicus) (P02706 whole entry, looked up): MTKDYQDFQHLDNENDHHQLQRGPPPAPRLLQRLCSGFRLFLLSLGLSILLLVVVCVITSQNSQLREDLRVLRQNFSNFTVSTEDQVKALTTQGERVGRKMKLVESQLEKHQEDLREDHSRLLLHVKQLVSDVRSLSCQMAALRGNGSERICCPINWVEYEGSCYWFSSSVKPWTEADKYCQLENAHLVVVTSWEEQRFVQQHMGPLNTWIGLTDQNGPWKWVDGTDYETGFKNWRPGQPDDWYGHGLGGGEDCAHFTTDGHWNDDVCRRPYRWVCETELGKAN

Row | SMILES | Ki
1 | O=C(CCCCO[C@@H]1O[C@@H](CO)[C@H](O)[C@H](O)[C@@H]1O)NCC(=O)NCCCC(=O)OCC(COC(=O)CCCNC(=O)CNC(=O)CCCCO[C@@H]1O[C@@H](CO)[C@H](O)[C@H](O)[C@@H]1O)(COC(=O)CCCNC(=O)CNC(=O)CCCCO[C@@H]1O[C@@H](CO)[C@H](O)[C@H](O)[C@@H]1O)NC(=O)CNC(=O)OCc1ccccc1 [Galactoside analogue] | 0.093 µM
2 | O=C(CCCCO[C@@H]1O[C@@H](CO)[C@H](O)[C@H](O)[C@@H]1O)NCCCNC(=O)CCOCC(COCCC(=O)NCCCNC(=O)CCCCO[C@@H]1O[C@@H](CO)[C@H](O)[C@H](O)[C@@H]1O)(COCCC(=O)NCCCNC(=O)CCCCO[C@@H]1O[C@@H](CO)[C@H](O)[C@H](O)[C@@H]1O)NC(=O)CNC(=O)OCc1ccccc1 [Galactoside analogue] | 0.093 µM
3 | CC(C)CCCC(C)[C@H]1CC[C@H]2[C@@H]3CC=C4C[C@@H](OC(=O)CNC(=O)CCCCC(=O)NCC(=O)NC(COCOCCOCCOCCOCCO[C@@H]5O[C@@H](CO)[C@H](O)[C@H](O)[C@@H]5O)(COCOCCOCCOCCOCCO[C@@H]5O[C@@H](CO)[C@H](O)[C@H](O)[C@@H]5O)COCOCCOCCOCCOCCO[C@@H]5O[C@@H](CO)[C@H](O)[C@H](O)[C@@H]5O)CC[C@]4(C)[C@H]3CC[C@]12C (stereo partly drawn) [TG(20)C-Galactoside analogue] | 0.2 µM
